Measurements taken from PMC9030254, “Target Hopping from Protein Kinases to PXR: Identification of Small-Molecule Protein Kinase Inhibitors as Selective Modulators of Pregnane X Receptor from TüKIC Library” (Cells, 2022).

Legend:
Experiment in all cases: Kinase profiling
Assay type in all cases: biochemical
VRK1 = target: T1, VRK1 (Homo sapiens, UniProt Q99986)
T1 construct: purchased ProQinase (Freiburg, Germany)
T1 sequence (Q99986 1-396): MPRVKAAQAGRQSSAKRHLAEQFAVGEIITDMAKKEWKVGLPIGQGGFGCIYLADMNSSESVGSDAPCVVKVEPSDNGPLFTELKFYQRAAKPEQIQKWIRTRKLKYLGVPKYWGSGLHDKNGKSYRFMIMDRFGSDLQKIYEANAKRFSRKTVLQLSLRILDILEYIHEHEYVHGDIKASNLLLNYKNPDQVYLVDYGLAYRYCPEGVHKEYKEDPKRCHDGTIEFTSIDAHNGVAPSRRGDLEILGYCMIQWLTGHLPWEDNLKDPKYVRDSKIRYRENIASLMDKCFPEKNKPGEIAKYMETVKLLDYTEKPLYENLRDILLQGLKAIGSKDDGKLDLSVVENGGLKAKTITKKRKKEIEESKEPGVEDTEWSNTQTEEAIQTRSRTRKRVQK
Description: (§1) The analysis was performed by ProQinase (Freiburg, Germany).

STK33 = target: T2, STK33 (Homo sapiens, UniProt Q9BYT3)
T2 construct: purchased ProQinase (Freiburg, Germany)
Description: as §1

MASTL = target: T3, MASTL (Homo sapiens, UniProt Q96GX5)
T3 construct: purchased ProQinase (Freiburg, Germany)
T3 sequence (Q96GX5 1-879): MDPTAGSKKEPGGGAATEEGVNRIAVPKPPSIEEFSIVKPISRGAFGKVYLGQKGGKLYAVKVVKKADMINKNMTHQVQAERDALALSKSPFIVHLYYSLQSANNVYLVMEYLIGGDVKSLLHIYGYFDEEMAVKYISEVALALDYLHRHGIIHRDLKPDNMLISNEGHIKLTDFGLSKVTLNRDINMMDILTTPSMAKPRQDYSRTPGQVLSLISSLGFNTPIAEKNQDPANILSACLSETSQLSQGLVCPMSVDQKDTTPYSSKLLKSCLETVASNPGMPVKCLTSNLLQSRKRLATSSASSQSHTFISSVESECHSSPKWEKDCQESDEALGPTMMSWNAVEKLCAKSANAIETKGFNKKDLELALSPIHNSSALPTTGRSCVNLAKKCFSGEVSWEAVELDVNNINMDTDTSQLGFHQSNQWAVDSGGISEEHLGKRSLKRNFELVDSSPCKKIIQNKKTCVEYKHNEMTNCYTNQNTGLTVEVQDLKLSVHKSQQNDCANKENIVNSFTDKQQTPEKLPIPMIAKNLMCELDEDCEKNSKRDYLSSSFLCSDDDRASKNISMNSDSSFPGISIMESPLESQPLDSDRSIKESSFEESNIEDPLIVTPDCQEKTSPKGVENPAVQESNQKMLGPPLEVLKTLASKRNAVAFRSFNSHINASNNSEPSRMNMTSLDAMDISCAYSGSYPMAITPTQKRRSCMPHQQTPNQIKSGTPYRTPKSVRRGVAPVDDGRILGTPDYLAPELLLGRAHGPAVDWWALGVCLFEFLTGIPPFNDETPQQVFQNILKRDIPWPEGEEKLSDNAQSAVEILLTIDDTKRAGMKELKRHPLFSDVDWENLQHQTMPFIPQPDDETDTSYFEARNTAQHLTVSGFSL
Description: as §1

PAK6 = target: T4, PAK6 (Homo sapiens, UniProt Q9NQU5)
T4 construct: purchased ProQinase (Freiburg, Germany)
T4 sequence (Q9NQU5 whole entry): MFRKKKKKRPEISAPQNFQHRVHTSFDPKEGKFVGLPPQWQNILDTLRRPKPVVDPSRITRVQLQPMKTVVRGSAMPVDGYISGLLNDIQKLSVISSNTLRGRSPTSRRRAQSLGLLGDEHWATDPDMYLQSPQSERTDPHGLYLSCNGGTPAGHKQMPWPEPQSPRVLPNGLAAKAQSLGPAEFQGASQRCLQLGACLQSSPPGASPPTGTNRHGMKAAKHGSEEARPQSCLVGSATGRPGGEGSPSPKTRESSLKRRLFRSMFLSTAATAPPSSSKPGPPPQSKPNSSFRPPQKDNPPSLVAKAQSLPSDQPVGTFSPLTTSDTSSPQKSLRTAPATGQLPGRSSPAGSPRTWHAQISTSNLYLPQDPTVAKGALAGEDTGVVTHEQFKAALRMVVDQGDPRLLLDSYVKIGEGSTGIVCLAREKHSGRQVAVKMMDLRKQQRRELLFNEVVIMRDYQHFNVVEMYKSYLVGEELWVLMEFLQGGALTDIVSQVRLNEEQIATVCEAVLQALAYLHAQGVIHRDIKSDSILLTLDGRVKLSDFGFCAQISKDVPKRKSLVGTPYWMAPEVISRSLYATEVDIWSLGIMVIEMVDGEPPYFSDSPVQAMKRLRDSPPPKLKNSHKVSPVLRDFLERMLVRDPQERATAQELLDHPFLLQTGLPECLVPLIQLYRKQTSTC
Description: as §1

RET = target: T5, RET (Homo sapiens, UniProt P07949)
T5 construct: purchased ProQinase (Freiburg, Germany)
T5 sequence (P07949 29-1114): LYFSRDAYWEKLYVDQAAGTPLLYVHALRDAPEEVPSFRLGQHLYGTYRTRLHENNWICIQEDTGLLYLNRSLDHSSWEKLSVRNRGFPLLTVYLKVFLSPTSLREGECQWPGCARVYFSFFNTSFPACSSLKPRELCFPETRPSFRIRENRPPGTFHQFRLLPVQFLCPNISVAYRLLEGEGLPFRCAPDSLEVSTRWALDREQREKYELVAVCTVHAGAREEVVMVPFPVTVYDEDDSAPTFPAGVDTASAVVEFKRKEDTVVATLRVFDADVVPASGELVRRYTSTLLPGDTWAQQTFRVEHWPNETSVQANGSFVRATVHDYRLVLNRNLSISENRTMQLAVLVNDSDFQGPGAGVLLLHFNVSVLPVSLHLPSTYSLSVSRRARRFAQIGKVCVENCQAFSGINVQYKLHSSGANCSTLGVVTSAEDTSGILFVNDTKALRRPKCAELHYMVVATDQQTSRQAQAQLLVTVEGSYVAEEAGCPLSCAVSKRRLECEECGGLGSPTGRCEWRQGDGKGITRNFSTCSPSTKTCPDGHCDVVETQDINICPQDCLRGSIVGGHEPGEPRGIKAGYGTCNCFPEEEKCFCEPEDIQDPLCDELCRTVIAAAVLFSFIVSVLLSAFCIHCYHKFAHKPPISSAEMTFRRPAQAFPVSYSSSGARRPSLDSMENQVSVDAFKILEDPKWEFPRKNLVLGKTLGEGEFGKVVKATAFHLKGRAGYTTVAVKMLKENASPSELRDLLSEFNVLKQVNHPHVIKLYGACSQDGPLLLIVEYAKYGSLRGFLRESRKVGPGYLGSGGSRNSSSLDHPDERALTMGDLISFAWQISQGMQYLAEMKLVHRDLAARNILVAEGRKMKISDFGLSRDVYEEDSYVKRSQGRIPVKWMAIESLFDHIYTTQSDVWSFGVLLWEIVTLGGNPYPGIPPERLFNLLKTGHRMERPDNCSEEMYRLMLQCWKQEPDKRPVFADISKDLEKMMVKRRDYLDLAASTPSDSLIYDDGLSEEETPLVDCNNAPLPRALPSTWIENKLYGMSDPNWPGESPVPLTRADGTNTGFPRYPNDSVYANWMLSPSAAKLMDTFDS
Description: as §1

CAMK2D = target: T6, CAMK2D (Homo sapiens, UniProt Q13557)
T6 construct: purchased ProQinase (Freiburg, Germany)
T6 sequence (Q13557 whole entry): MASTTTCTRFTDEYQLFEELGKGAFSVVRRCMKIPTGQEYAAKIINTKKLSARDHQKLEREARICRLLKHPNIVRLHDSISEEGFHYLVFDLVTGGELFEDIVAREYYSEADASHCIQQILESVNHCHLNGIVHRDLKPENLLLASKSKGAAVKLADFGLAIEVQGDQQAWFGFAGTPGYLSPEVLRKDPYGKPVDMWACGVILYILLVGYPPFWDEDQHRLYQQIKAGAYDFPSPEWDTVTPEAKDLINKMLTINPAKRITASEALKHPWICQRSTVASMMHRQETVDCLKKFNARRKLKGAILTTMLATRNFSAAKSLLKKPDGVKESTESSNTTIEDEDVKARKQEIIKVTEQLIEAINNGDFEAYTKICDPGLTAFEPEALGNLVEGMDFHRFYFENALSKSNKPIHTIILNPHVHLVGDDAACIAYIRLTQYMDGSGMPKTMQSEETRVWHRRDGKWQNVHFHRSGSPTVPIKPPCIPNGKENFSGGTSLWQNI
Description: as §1

WNK1 = target: T7, WNK1 (Homo sapiens, UniProt Q9H4A3)
T7 construct: purchased ProQinase (Freiburg, Germany)
T7 sequence (Q9H4A3 whole entry): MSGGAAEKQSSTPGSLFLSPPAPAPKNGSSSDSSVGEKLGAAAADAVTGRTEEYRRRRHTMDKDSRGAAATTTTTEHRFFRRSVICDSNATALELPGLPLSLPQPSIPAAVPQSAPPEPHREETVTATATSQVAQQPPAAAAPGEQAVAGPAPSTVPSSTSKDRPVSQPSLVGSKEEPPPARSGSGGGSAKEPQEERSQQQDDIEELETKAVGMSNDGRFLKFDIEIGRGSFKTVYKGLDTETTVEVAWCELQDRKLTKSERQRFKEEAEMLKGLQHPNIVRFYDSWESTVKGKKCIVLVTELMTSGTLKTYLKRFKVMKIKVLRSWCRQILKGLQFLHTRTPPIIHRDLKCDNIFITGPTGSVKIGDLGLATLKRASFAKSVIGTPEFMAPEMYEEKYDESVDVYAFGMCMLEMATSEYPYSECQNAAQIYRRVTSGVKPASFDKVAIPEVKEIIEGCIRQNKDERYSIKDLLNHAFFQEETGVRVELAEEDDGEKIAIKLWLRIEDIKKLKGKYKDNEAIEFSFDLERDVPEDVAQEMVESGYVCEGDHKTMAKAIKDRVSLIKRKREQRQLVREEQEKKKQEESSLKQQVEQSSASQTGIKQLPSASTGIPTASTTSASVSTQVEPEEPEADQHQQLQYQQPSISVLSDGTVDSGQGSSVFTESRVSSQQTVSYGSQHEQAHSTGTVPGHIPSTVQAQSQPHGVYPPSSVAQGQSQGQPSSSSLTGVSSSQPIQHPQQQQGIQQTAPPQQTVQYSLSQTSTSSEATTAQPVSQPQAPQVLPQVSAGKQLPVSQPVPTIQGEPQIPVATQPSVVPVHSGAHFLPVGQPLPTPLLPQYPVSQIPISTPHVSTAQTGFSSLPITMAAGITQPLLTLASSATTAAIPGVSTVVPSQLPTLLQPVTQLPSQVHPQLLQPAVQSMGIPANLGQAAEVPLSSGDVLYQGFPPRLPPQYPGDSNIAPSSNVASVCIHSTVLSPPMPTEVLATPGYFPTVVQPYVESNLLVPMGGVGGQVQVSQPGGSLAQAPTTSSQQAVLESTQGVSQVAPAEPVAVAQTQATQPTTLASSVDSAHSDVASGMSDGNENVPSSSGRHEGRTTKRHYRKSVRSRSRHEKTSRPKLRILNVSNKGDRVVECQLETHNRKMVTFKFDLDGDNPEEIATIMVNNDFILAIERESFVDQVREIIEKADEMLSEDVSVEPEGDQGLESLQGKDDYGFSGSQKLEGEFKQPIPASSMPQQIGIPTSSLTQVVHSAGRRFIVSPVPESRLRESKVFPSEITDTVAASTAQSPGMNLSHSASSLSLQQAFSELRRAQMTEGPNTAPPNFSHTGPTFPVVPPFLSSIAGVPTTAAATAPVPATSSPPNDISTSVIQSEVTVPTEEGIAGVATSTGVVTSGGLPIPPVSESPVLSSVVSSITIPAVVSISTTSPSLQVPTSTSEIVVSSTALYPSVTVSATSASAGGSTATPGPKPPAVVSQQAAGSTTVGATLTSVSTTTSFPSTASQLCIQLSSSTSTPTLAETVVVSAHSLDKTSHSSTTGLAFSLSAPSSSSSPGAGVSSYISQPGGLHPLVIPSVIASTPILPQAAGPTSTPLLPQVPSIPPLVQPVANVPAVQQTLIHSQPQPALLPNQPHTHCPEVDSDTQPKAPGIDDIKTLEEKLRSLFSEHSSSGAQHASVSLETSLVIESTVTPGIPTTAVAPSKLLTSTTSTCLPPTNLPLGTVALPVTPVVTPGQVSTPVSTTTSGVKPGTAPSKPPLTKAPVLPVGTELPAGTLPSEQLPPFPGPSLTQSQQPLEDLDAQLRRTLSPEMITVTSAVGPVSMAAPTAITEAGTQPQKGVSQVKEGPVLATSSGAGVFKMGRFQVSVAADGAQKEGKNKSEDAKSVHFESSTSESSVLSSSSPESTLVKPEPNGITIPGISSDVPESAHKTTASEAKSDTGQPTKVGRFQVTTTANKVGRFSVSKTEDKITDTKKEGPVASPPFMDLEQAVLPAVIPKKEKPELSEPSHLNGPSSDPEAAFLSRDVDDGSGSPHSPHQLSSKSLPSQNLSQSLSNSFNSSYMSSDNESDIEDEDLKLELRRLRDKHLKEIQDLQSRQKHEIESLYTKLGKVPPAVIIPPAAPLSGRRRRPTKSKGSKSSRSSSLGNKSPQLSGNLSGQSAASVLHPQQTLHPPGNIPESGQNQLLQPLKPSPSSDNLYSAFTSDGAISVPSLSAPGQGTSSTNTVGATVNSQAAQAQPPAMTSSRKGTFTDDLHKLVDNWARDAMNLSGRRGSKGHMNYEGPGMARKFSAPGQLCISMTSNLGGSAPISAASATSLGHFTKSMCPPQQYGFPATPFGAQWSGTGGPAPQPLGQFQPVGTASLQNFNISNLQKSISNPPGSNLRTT
Description: as §1

SGK2 = target: T8, SGK2 (Homo sapiens, UniProt Q9HBY8)
T8 construct: purchased ProQinase (Freiburg, Germany)
T8 sequence (Q9HBY8 1-367): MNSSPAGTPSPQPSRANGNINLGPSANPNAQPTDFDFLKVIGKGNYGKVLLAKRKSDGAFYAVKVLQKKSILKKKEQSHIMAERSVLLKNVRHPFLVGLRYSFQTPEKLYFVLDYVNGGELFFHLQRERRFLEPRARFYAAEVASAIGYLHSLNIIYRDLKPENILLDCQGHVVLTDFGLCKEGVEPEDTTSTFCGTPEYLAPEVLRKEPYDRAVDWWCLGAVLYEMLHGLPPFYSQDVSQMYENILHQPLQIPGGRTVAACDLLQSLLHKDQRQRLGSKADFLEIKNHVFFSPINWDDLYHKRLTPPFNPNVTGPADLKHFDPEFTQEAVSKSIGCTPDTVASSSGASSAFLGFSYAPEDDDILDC
Description: as §1

IKKepsilon = target: T9, IKKepsilon (Homo sapiens, UniProt Q14164)
T9 construct: purchased ProQinase (Freiburg, Germany)
T9 sequence (Q14164 1-716): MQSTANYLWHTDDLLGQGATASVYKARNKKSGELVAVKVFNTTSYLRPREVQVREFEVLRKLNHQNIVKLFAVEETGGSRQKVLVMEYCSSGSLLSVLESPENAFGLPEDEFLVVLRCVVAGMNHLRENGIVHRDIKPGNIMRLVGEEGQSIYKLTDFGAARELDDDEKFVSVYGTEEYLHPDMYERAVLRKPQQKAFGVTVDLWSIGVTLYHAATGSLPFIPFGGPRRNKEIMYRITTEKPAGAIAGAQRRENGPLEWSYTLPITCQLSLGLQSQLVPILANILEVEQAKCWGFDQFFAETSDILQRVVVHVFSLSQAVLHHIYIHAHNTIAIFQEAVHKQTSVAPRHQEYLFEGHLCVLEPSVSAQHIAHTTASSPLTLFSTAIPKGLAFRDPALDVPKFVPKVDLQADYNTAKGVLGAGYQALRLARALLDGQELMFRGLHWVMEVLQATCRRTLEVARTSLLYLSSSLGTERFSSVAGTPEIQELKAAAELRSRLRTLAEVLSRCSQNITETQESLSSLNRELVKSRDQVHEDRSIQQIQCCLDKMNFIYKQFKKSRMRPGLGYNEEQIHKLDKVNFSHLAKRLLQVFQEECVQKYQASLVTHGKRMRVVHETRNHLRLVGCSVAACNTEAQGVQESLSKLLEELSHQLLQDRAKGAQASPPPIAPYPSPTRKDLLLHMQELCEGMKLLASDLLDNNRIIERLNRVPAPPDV
Description: as §1

| SMILES | Residual activity (VRK1; 1.0E-05 M) | Residual activity (VRK1; 1.0E-06 M) | Residual activity (STK33; 1.0E-05 M) | Residual activity (STK33; 1.0E-06 M) | Residual activity (MASTL; 1.0E-05 M) | Residual activity (MASTL; 1.0E-06 M) | Residual activity (PAK6; 1.0E-05 M) | Residual activity (PAK6; 1.0E-06 M) | Residual activity (RET; 1.0E-05 M) | Residual activity (RET; 1.0E-06 M) | Residual activity (CAMK2D; 1.0E-05 M) | Residual activity (CAMK2D; 1.0E-06 M) | Residual activity (WNK1; 1.0E-05 M) | Residual activity (WNK1; 1.0E-06 M) | Residual activity (SGK2; 1.0E-05 M) | Residual activity (SGK2; 1.0E-06 M) | Residual activity (IKKepsilon; 1.0E-05 M) | Residual activity (IKKepsilon; 1.0E-06 M) |
| --- | --- | --- | --- | --- | --- | --- | --- | --- | --- | --- | --- | --- | --- | --- | --- | --- | --- | --- |
| O=C(Nc1ccc(F)c(Nc2ccc3c(c2)CCCCC3=O)c1)c1cccc(F)c1 [Compound 109] | 130 % of control | 100 % of control | 99 % of control | 93 % of control | 99 % of control | 94 % of control | 90 % of control | 99 % of control | 89 % of control | 95 % of control | 88 % of control | 92 % of control | 94 % of control | 93 % of control | 96 % of control | 97 % of control | 92 % of control | 95 % of control |
| O=C(Cc1ccccc1)Nc1ccc(F)c(Nc2ccc3c(c2)CCCCC3=O)c1 [Compound 100] | 103 % of control | 102 % of control | 96 % of control | 109 % of control | 92 % of control | 99 % of control | 98 % of control | 101 % of control | 70 % of control | 91 % of control | 90 % of control | 103 % of control | 97 % of control | 99 % of control | 93 % of control | 101 % of control | 101 % of control | 103 % of control |
